Here are results for three compounds from patent publication US4435405A, “Quinoline derivatives which are 5-hydroxytryptamine antagonists” (Imperial Chemical Industries PLC, priority 1981, dated 1984).

One series in a line: LD50 in the mouse. Particulars: in vivo.
The nature of the next series: LD50 in the rat. Conditions: in vivo, female.
[1] abbreviates: ip, intraperitoneally in the mouse.

SMILES strings stand for the structures.

Compound `COc1ccccc1-c1cc2ccccc2nc1SCCN(C)C.Cl` [2-(2-dimethylaminoethylthio)-3-(o-methoxyphenyl)-quinoline hydrochloride] had a median lethal dose (LD50) in “LD50 in the mouse” (setting [1]) of around 150 mg/kg.

As to `CC(C)c1cc2ccccc2nc1SCCN(C)C.Cl` [2-(2-dimethylaminoethylthio)-3-isopropylquinoline hydrochloride], the LD50 in “LD50 in the mouse” (setting [1]) is around 100 mg/kg.

With `CN(C)CCSc1nc2ccccc2cc1-c1ccccc1.Cl` [2-(2-dimethylaminoethylthio)-3-phenylquinoline hydrochloride], the LD50 in the series “LD50 in the mouse” (ip, mouse, male, intraperitoneal) is 75 mg/kg; in the series “LD50 in the mouse” (mouse, male, oral), 485 mg/kg; in “LD50 in the rat” (oral), above 1000 mg/kg; in “LD50 in the rat” (ip, intraperitoneal), 128 mg/kg.

By LD50 is commonly meant the dose at which mortality reaches 50%.
